Laboratory results from article PMC4102924 (Science translational medicine, 2013).

Target: PDK2 (pyruvate dehydrogenase kinase 2) (Homo sapiens, UniProt Q15119)
Assay: radiometric kinase assay with recombinant PDK2
Type: biochemical

Structure (SMILES): O=C(O)CCCc1ccccc1 [phenylbutyrate]
- Ki: 330 ± 80 µM
